Reference: patent EP4600243A2, “NOVEL BICYCLIC HETEROCYCLYL COMPOUNDS AND USE THEREOF” (Jeil Pharmaceutical Co., Ltd., priority 2022, dated 2024)

Target: T1, protein-protein interaction between SOS1 and KRAS G12C (Homo sapiens, UniProt Q07889)
T1 construct: purchased Cisbio 64KRASG12PEG
T1 sequence (Q07889 1-1333): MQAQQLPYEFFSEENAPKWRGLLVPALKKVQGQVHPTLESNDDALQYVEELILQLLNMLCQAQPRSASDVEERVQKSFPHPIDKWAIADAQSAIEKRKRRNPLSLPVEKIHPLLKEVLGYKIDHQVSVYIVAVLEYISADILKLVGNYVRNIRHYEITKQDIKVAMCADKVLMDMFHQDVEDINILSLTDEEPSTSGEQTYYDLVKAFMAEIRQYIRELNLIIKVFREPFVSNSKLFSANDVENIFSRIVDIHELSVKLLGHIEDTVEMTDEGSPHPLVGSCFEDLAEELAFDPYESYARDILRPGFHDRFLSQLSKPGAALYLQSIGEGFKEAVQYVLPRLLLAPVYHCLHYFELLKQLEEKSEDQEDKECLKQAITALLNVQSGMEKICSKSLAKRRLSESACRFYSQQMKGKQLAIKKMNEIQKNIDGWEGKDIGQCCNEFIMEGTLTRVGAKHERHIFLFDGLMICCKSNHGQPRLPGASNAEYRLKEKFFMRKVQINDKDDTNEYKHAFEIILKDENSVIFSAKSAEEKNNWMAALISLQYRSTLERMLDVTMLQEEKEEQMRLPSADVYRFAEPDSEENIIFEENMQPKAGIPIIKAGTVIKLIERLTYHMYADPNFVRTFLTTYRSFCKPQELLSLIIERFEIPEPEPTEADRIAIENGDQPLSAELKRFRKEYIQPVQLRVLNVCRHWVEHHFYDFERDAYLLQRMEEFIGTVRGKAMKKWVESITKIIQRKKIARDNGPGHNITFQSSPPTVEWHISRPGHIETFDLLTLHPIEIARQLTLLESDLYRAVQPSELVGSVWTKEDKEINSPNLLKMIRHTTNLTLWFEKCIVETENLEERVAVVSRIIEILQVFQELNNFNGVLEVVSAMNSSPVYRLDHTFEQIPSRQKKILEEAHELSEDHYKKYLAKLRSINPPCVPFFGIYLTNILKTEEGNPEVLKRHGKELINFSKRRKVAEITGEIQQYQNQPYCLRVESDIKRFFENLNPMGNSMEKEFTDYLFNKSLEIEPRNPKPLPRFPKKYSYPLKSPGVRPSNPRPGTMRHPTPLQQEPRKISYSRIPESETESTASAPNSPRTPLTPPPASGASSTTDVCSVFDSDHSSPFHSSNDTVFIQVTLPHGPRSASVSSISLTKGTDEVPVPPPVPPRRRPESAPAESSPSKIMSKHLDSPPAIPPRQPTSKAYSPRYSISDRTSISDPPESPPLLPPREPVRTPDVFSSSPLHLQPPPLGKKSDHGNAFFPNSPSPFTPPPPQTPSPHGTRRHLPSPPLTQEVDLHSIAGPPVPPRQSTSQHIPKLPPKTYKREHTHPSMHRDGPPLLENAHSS
Assay: KRAS::SOS1 HTRF binding analysis (KRAS G12C/SOS1 binding kit)
Conditions: compound at 0.1 uM
Description: 1-1. KRAS::SOS1 HTRF binding analysis
An SOS1 inhibitory ability of the example compounds of the present invention was confirmed by identifying the effect of inhibiting a protein-protein interaction between SOS1 and KRAS G12C of the compounds according to examples of the present invention.
Specifically, a KRAS G12C/SOS1 binding kit (64KRASG12PEG, Cisbio, France) was purchased and used. 2 µℓ of Tag1-KRAS G12C and 2 µℓ of GTP were premixed and dispensed 4 µl each into a 384 well plate (6007290, PerkinElmer, USA). 2 µℓ of the compound and 4 µℓ of Tag2-SOS1 were placed and then 10 µℓ of premixed Anti-Tag1 XL665 antibody and Anti-Tag2 Tb cryptate antibody was dispensed to each well. The plates were sealed and allowed to react at room temperature for one hour and 40 minutes, and then 665 nm wavelength and 620 nm wavelength were measured using a HTRF® compatible reader (Synergy H4, BioTeK, USA), and the ratio of receptor and donor emission signals for each well was calculated as 665 nm/620 nm×10^4.
(+++: more than 70 to 100% inhibition, ++: more than 40 to 70% inhibition, +: 0 to 40% inhibition) [Table 4]

Row | Structure (SMILES) | inhibition at 0.1 µM [%]
1 | C[C@@H](Nc1cnnc2ccc(N3CC[C@H](O)C3)cc12)c1cccc(C(F)F)c1F [Example 28, (S)-1-(4-(((R)-1-(3-(difluoromethyl)-2-fluorophenyl)ethyl)amino)cinnolin-6-yl)pyrrolidin-3-ol] | 0 to 40
2 | C[C@@H](Nc1cnnc2ccc(N3C[C@H]4COC[C@H]4C3)cc12)c1cccc(C(F)F)c1F [Example 29, N-((R)-1-(3-(difluoromethyl)-2-fluorophenyl)ethyl)-6-((3 aR,6aS)-tetrahydro-1H-furo[3,4-c]pyrrol-5(3H)-yl)cinnolin-4-amine] | 40 to 70
3 | C[C@@H](Nc1cnnc2ccc(N3CC(O)C3)cc12)c1cccc(C(F)F)c1F [Example 30, (R)-1-(4-((1-(3-(difluoromethyl)-2-fluorophenyl)ethyl)amino)cinnolin-6-yl)azetidin-3-ol] | 0 to 40
4 | COC1CN(c2ccc3nncc(N[C@H](C)c4cccc(C(F)F)c4F)c3c2)C1 [Example 31, (R)-N-(1-(3-(difluoromethyl)-2-fluorophenyl)ethyl)-6-(3-methoxyazetidin-1-yl)cinnolin-4-amine] | 0 to 40
5 | C[C@@H](Nc1cnnc2ccc(N3CC(C)(O)C3)cc12)c1cccc(C(F)F)c1F [Example 32, (R)-1-(4-((1-(3-(difluoromethyl)-2-fluorophenyl)ethyl)amino)cinnolin-6-yl)-3-methylazetidin-3-ol] | 0 to 40
6 | COC1(C)CN(c2ccc3nncc(N[C@H](C)c4cccc(C(F)F)c4F)c3c2)C1 [Example 33, (R)-N-(1-(3-(difluoromethyl)-2-fluorophenyl)ethyl)-6-(3-methoxy-3-methylazetidin-1-yl)cinnolin-4-amine] | 0 to 40
7 | COC1CC2(C1)CN(c1ccc3nncc(N[C@H](C)c4cccc(C(F)F)c4F)c3c1)C2 [Example 34, (R)-N-(1-(3-(difluoromethyl)-2-fluorophenyl)ethyl)-6-(6-methoxy-2-azaspiro[3.3]heptan-2-yl)cinnolin-4-amine] | 0 to 40
8 | C[C@@H](Nc1cnnc2ccc(N[C@@H]3CCOC3)cc12)c1cccc(C(F)F)c1F [Example 35, N4-((R)-1-(3-(difluoromethyl)-2-fluorophenyl)ethyl)-N6-((R)-tetrahydrofuran-3-yl)cinnolin-4,6-diamine] | 0 to 40
9 | C[C@@H](Nc1cnnc2ccc(N[C@H]3CCOC3)cc12)c1cccc(C(F)F)c1F [Example 36, N4-((R)-1-(3-(difluoromethyl)-2-fluorophenyl)ethyl)-N6-((S)-tetrahydrofuran-3-yl)cinnolin-4,6-diamine] | 0 to 40
10 | C[C@@H](Nc1cnnc2ccc(N3CC4CC(C3)O4)cc12)c1cccc(C(F)F)c1 [Example 42, 6-(6-oxa-3-azabicyclo[3.1.1]heptan-3-yl)-N-((R)-1-(3-(difluoromethyl)phenyl)ethyl)cinnolin-4-amine] | 0 to 40
11 | C[C@@H](Nc1cnnc2ccc(N3CC4CC(C3)O4)cc12)c1cccc(C(F)(F)F)c1 [Example 47, 6-(6-oxa-3-azabicyclo[3.1.1]heptan-3-yl)-N-((R)-1-(3-(trifluoromethyl)phenyl)ethyl)cinnolin-4-amine] | 0 to 40
12 | Cc1c([C@@H](C)Nc2cnnc3ccc(N4CC5CC(C4)O5)cc23)cccc1C(F)(F)F [Example 48, 6-(6-oxa-3-azabicyclo[3.1.1]heptan-3-yl)-N-((R)-1-(2-methyl-3-(trifluoromethyl)phenyl)ethyl)cinnolin-4-amine] | 0 to 40
13 | Cc1c(C#N)cccc1[C@@H](C)Nc1cnnc2ccc(N3CC4CC(C3)O4)cc12 [Example 50, 3-((1R)-1-((6-(6-oxa-3-azabicyclo[3.1.1]heptan-3-yl)cinnolin-4-yl)amino)ethyl)-2-methylbenzonitrile] | 0 to 40
14 | Cc1c(C#N)cccc1[C@@H](C)Nc1cnnc2ccc(C3=CCN(C)CC3)cc12 [Example 52, (R)-2-methyl-3-(1-(6-(1-methyl-1,2,3,6-tetrahydropyridin-4-yl)cinnolin-4-ylamino)ethyl)benzonitrile] | 0 to 40
15 | C[C@@H](Nc1cnnc2ccc(C3=CCN(C)CC3)cc12)c1cccc(C#N)c1 [Example 53, (R)-3-(1-(6-(1-methyl-1,2,3,6-tetrahydropyridin-4-yl)cinnolin-4-ylamino)ethyl)benzonitrile] | 0 to 40

Continued, values first:

Row | inhibition at 0.1 µM [%] | Structure (SMILES)
16 | 0 to 40 | C[C@@H](Nc1cnnc2ccc(NC3CCOCC3)cc12)c1cccc(C(F)F)c1F [Example 37, (R)-N4-(1-(3-(difluoromethyl)-2-fluorophenyl)ethyl)-N6-(tetrahydro-2H-pyran-4-yl)cinnolin-4,6-diamine]
17 | 40 to 70 | C[C@@H](Nc1cnnc2ccc(N[C@@H]3CCN(C)C3)cc12)c1cccc(C(F)F)c1F [Example 38, N4-((R)-1-(3-(difluoromethyl)-2-fluorophenyl)ethyl)-N6-((R)-1-methylpyrrolidin-3-yl)cinnolin-4,6-diamine]
18 | 70 to 100 | C[C@@H](Nc1cnnc2ccc(N[C@@H]3CCNC3)cc12)c1cccc(C(F)F)c1F [Example 39, N4-((R)-1-(3-(difluoromethyl)-2-fluorophenyl)ethyl)-N6-((R)-pyrrolidin-3-yl)cinnolin-4,6-diamine]
19 | 40 to 70 | C[C@@H](Nc1cnnc2ccc(N[C@H]3CCNC3)cc12)c1cccc(C(F)F)c1F [Example 40, N4-((R)-1-(3-(difluoromethyl)-2-fluorophenyl)ethyl)-N6-((S)-pyrrolidin-3-yl)cinnolin-4,6-diamine]
20 | 70 to 100 | C[C@@H](Nc1cnnc2ccc(N3CCN(C(=O)C4COC4)CC3)cc12)c1cccc(C(F)F)c1F [Example 41, (R)-(4-(4-(1-(3-(difluoromethyl)-2-fluorophenyl)ethylamino)cinnolin-6-yl)piperazin-1-yl)(oxetan-3-yl)methanone]
21 | 0 to 40 | C[C@@H](Nc1cnnc2ccc(N3CCC(C)(O)CC3)cc12)c1cccc(C(F)F)c1 [Example 43, (R)-1-(4-((1-(3-(difluoromethyl)phenyl)ethyl)amino)cinnolin-6-yl)-4-methylpiperidin-4-ol]
22 | 0 to 40 | C[C@@H](Nc1cnnc2ccc(N3C[C@H]4C[C@@H]3CO4)cc12)c1cccc(C(F)F)c1 [Example 44, 6-((1R,4R)-2-oxa-5-azabicyclo[2.2.1]heptan-5-yl)-N-((R)-1-(3-(difluoromethyl)phenyl)ethyl)cinnolin-4-amine]
23 | 0 to 40 | C[C@@H](Nc1cnnc2ccc(N3CC(C)(O)C3)cc12)c1cccc(C(F)F)c1 [Example 45, (R)-1-(4-((1-(3-(difluoromethyl)phenyl)ethyl)amino)cinnolin-6-yl)-3-methylazetidin-3-ol]
24 | 0 to 40 | Cc1c([C@@H](C)Nc2cnnc3ccc(N4CC5(CN(C)C5)C4)cc23)cccc1C(F)(F)F [Example 49, (R)-N-(1-(2-methyl-3-(trifluoromethyl)phenyl)ethyl)-6-(6-methyl-2,6-diazaspiro[3.3]heptan-2-yl)cinnolin-4-amine]
25 | 0 to 40 | Cc1c(C#N)cccc1[C@@H](C)Nc1cnnc2ccc(N3CCC(C)(O)CC3)cc12 [Example 51, (R)-3-(1-((6-(4-hydroxy-4-methylpiperidin-1-yl)cinnolin-4-yl)amino)ethyl)-2-methylbenzonitrile]
26 | 0 to 40 | C[C@@H](Nc1cnnc2ccc(N[C@@H]3CCNC3)cc12)c1cccc(C#N)c1 [Example 54, 3-((R)-1-(6-((R)-pyrrolidin-3-ylamino)cinnolin-4-ylamino)ethyl)benzonitrile]
